Laboratory results as given in US5407956A, “2-amino-1,2,3,4-tetrahydronaphthalene derivatives active on the cardiovascular system, processes for their preparation and pharmaceutical compositions containing them” (Zambon Group S.p.A., priority 1992, dated 1995).
pKi: −log10 of the molar value. Entries after “also recorded” stand apart in the source; their conditions may differ. Counter-ions that a name gives are not always drawn.

Experiments:
D1 receptor [1] = biological target: T1, D1 receptor (Rattus norvegicus, UniProt P18901); test: biochemical; settings: [3H]-SCH23390; rat striatal membranes; Table 2; read-out: Binding D1 rat striatum Ki
T1 sequence (P18901 whole entry): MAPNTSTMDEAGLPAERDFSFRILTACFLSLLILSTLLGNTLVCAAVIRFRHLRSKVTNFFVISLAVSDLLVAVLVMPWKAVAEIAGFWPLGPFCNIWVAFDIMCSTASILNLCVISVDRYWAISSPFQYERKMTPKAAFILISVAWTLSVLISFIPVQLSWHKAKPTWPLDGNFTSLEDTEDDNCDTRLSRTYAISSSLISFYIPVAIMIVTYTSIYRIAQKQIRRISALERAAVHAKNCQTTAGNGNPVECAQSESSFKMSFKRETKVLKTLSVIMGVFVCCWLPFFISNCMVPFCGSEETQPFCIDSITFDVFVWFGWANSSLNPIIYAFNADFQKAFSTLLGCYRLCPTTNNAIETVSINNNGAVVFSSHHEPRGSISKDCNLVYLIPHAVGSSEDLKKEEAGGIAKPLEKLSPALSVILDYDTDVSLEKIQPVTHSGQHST
Experimental: (§1) The tissues were homogenized in 50 mM Tris/HCl buffer, pH 7.4 (1:100 weight/volume).
(§2) The homogenate was centrifuged and the pellet was resuspended, centrifuged again and resuspended in 50 mM Tris/HCl buffer pH 7.4 containing 120 mM NaCl, 5mM KCl, 2mM CaCl2 and 1 mM MgCl2.

D2 receptor [2] = biological target: T2, D2 receptor (Rattus norvegicus, UniProt P61169); test: biochemical; settings: [3H]-spiperone; rat striatal membranes; Table 2; read-out: Binding D2 rat striatum Ki
T2 sequence (P61169 whole entry): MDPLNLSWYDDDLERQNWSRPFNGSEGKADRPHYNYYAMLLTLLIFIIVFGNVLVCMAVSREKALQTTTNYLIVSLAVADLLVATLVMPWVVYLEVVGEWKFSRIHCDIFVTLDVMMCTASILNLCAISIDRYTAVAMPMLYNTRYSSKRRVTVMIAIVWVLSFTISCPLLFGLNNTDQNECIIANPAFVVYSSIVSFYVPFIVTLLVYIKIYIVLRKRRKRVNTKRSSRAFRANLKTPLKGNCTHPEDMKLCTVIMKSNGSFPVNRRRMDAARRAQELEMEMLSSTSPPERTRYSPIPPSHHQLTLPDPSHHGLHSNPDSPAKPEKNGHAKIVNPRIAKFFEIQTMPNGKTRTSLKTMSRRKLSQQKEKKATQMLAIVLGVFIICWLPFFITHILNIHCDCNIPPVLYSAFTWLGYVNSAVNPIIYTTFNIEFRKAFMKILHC
Experimental: as §1, §2
The standard incubation conditions (volume 1 ml) for the assay in which [^3 H]-SCH23390 was used were as follows: 50 mM Tris/HCl buffer (pH 7.4), 0.2 nM [^3 H]-SCH23390, a membrane preparation (3 mg/ml corresponding to 130-150 μg proteins/ml), incubation temperature 37° C. and incubation time 15 minutes. The standard incubation conditions (volume 2 ml) for the assay in which [^3 H]-spiperone was used were as follows: 50 mM Tris/HCl buffer (pH 7.4), 0.2 nM [^3 H]-spiperone, a membrane preparation (3 mg/ml corresponding to 130-150 μg proteins/ml), incubation temperature 37° C. and incubation time 15 minutes.

DA2 = biological target: T3, DA2 (Oryctolagus cuniculus, UniProt G1T1Q0); test: DA2-agonist activity on electrically stimulated rabbit ear artery; settings: inhibition of contraction induced by electric stimulation; for EC50: read-out: DA2 rabbit ear artery pD2 (-log EC50) (converted)
T3 construct: Transversal sections (2-3 mm) of rabbit ear artery were suspended in isolated organ baths; from tissue; host or cells: rabbit ear artery (transversal sections)
T3 sequence (G1T1Q0 1-443): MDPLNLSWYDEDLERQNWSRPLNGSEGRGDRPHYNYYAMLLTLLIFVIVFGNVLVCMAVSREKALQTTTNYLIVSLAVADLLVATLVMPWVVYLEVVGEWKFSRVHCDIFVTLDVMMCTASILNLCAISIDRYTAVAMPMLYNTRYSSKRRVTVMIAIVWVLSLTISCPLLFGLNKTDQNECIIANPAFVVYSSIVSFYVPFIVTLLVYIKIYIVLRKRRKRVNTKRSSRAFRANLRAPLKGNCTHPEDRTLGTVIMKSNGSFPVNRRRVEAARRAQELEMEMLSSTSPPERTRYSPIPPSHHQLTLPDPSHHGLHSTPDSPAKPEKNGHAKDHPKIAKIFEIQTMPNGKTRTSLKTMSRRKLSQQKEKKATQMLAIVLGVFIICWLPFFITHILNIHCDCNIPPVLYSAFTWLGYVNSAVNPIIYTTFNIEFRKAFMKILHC
Experimental: DA2 -agonist activity was evaluated as follows. Transversal sections (2-3 mm) of rabbit ear artery were suspended in isolated organ baths containing Krebs-Henseleit solution added with corticosterone (30 μM), desipramine (0.1 μM) and EDTA (10 μM).
The preparation, subjected to a traction of 1 g and to an electric stimulation with field pulses every 5 minutes (10 Hz, 1 msec., 30-60 V, 500 msec. duration) were left stabilize for about 2 hours.
Each preparation was submitted to three increasing concentrations allowing the recovery of the basal conditions before the subsequent administration.

[3] = in words; cited from earlier work
dopaminergic receptors = settings: in words; cited from earlier work
D1 receptor [4] = biological target: T1, D1 receptor; test: Receptor binding, D1 receptor, [3H]-SCH23390, rat striatal membranes (part A); parameters: membranes from striatal tissues were prepared; from tissue; host or cells: rat striatum (membranes); species or system rat (Sprague-Dawley); settings: for pKi: [3H]-SCH23390, rat striatal membranes, Table 1, read-out: Affinity Ki for D1 receptor
D2 receptor [5] = biological target: T2, D2 receptor; test: Receptor binding, D2 receptor, [3H]-domperidone, rat striatal membranes (part A); parameters: membranes from striatal tissues were prepared; from tissue; host or cells: rat striatum (membranes); species or system rat (Sprague-Dawley); settings: for pKi: [3H]-domperidone, rat striatal membranes, Table 1, read-out: Affinity Ki for D2 receptor
Experimental: as §1, §2
For D2 -receptor binding studies [^3 H]-domperidone (0.3 nM) was incubated in a volume of 1000 μl containing buffer and a membrane preparation as above described. In addition bovine serum albumine (BSA) (0.01%) was added. The mixture was incubated at 37° C. for 30 minutes for each concentration of the tested compounds.

SHR rats = test: In vivo antihypertensive activity, systolic blood pressure by tail cuff in conscious SHR rats; parameters: species or system rat (SHR)
Experimental: Male SHR rats, 3-4 months old, fasted 16 hours before the experiment were used. Systolic blood pressure (SBP) and heart rate (HR) were recorded by tail cuff method in conscious animals by means of a BP Recorder (W+W Basile, Italy). Before every pressure determination animals were maintained at 37° C. for 10 minutes.
SBP and HR values were recorded before and at various times up to seven hours after treatment with the tested compounds.
The compounds were administered orally by gavage, in a volume of 10 ml/kg, at doses between 10 and 160 mg/kg. For the administration, the compounds were suspended in carboxymethylcellulose (CMC) 0.5% in water and additioned with Tween 80 (0.3 ml/10 ml of CMC).
The obtained results, expressed as ED30mmHg (mg/kg p.o.) that is the dose causing a decrease of 30 mmHg from the basal value of SBP (about 15% decrease) are the following: […]

SMILES	pKi (D1 receptor [1])	pKi (D2 receptor [2])	EC50 (DA2) [µM]	also measured
CCCN(CCCCCCNCCOc1ccccc1OC)[C@@H]1CCc2cc(O)c(O)cc2C1 [Compound 2, (R)-N-propyl-N-[6-[2-(2-methoxyphenoxy)ethylamino]hexyl]-6,7-dihydroxyl-1,2,3,4-tetrahydro-2-naphthylamino dihydrochloride]	6.50	8.08	0.00437	
CCCN(CCCCCCNCCOc1ccc(C)cc1Cl)[C@H]1CCc2c(ccc(O)c2O)C1 [Compound 5, (S)-N-propyl-N-[6-[2-[(2-chloro-4-methyl)phenoxy]ethylamino]-hexyl]-5,6-dihydroxy-1,2,3,4-tetrahydro-2-naphthylamine dihydrochloride]	6.92	8.30	0.00692	
CCCCN(CCCCCCN(C)CCOc1ccccc1OC)[C@@H]1CCc2cc(O)c(O)cc2C1 [Compound 11, (R)-N-butyl-N-[2-(6,7-dihydroxy-1,2,3,4-tetrahydro)naphthyl]-N'-methyl-N'-[2-(2-methoxyphenoxy)ethyl]-1,6-hexanediamine dihydrochloride]	4.93	6.20	1.35	
CCCCN(CCCNCCOc1ccc(C)cc1OC)[C@H]1CCc2c(ccc(O)c2O)C1 [Compound 9, (S)-N-butyl-N-[3-[2-[(2-methoxy-4-methyl)phenoxy]ethylamino]propyl]-5,6-dihydroxyl-1,2,3,4-teyrahydro-2-naphthylamine dihydrochloride]	4.66	6.72	1.05	
Oc1ccc(CCNCCCCCCNCCc2ccccc2)cc1O [Dopexamine, dopexamine, reference compound]	5.49	5.77	0.447	Oral absorption (literature) [3]: not absorbed when administered by oral route; Agonist activity on dopaminergic receptors relative to dopamine (dopaminergic receptors): less active than dopamine; pKi (D1 receptor [4]): 5.65; pKi (D2 receptor [5]): 6.84
CCCCN(CCCCCCNCCOc1ccccc1Cl)[C@H]1CCc2c(ccc(O)c2O)C1 [Compound 4, (S)-N-butyl-N-[6-[2-2-(chlorophenoxy)ethylamino]hexyl]-5,6-dihydroxy-1,2,3,4-tetrahydro-2-naphthylamine dihydrochloride]	6.15	7.10	0.513	
CCCN(CCCCCCNCCOc1ccccc1OC)[C@H]1CCc2c(ccc(O)c2O)C1 [Compound 1, S-(-)-N-propyl-N-[6-(2-(2-methoxyphenoxy)ethylamino]hexyl]-5,6-dihydroxy-1,2,3,4-tetrahydro-2-naphthylamine dihydrchloride]	7.05	9.30	0.00107	ED (30 mmHg) (SHR rats; Rattus norvegicus, oral gavage, about 15% decrease of SBP, read-out: ED30mmHg, dose causing a decrease of 30 mmHg from the basal value of SBP): 22.9 mg/kg; Duration of the antihypertensive effect (SHR rats; oral): about 4 hours; pKi (D1 receptor [4]): 6.71; Potency on D1 receptors, times more potent than dopamine and dopexamine (D1 receptor [4]; vs dopamine and dopexamine): about 10 times; pKi (D2 receptor [5]): 8.40; Potency on D2 receptors, times more potent than dopamine and dopexamine (D2 receptor [5]; vs dopamine and dopexamine): about 100 times
CCCCN(CCCN(C)CCOc1ccc(C)cc1Cl)[C@@H]1CCc2cc(O)c(O)cc2C1 [Compound 14, (R)-N-butyl-N-[2-(6.,7-dihydroxy-l,2,3,4-tetrahydro)naphthyl]-N'-methyl-N'-[2-[(2-chloro-4-methyl)phenoxy]ethyl]-1.3-propanediamine dihydrochloride]	5.55	6.59	6.03	
NCCc1ccc(O)c(O)c1 [Dopamine, dopamine]				DA2 rabbit ear artery pD2 (-log EC50) (DA2): 7.40; Oral absorption (literature) [3]: lack of absorption by opal route; also recorded: not absorbed when administered by oral route
CCCN(CCCN(C)CCOc1ccccc1OC)[C@H]1CCc2c(ccc(O)c2O)C1 [Compound 13, (S)-N-propyl-N-[2-(5,6-dihydroxy-1,2,3,4-tetrahydro)naphthyl]-N'-methyl-N'-[2-(2-methoxyphenoxy)ethyl]-1,3-propanediamine dihydrochloride]	5.44	8.01	0.00407	
CCCN(CCCNCCOc1ccccc1OC)[C@H]1CCc2c(ccc(O)c2O)C1 [Compound 7, (S)-N-propyl-N-[3-[2-[(2-methoxyphenoxy)ethylamino]propyl]-5,6-dihydroxy-1,2,3,4-tetrahydro-2-naphthylaminedihydrochloride]	5.96	8.96	0.00214	
CCCN(CCCNCCOc1ccccc1Cl)[C@@H]1CCc2cc(O)c(O)cc2C1 [Compound 8, (R)-N-propyl-N-[3-[2-[(2-chlorophenoxy)ethylamino]propyl]-6,7-dihydroxy-1,2,3,4-tetrahydro-2-naphthylaminedihydrochloride]	5.58	7.80	0.0447	
CCCCN(CCCCCCNCCOc1ccccc1OC)[C@H]1CCc2c(ccc(O)c2O)C1 [Compound 3, (S)-N-butyl-N-[6-[2-(2-methoxyphenoxy)ethylamino]hexyl]-5,6-dihydroxy-1,2,3,4-tetrahydro-2-naphthylamine dihydrochloride]	6.25	7.07	0.0295	
CCCN(CCCCCCN(C)CCOc1ccc(C)cc1Cl)[C@H]1CCc2c(ccc(O)c2O)C1 [Compound 12, (S)-N-[2-(5,6-dihydroxy-1,2,3,4-tetrahydro)naphthyl]-N-propyl-N'-methyl-N'-[2-[(2-chloro-4-methyl]phenoxyl]ethyl]-1,6-hexanediamine dihydrochloride]	6.74	8.08	0.457	
CCCN(CCCCCCN(C)CCOc1ccccc1OC)[C@H]1CCc2c(ccc(O)c2O)C1 [Compound 10, (S)-N-[2-(5,6-dihydroxy-1,2,3,4-tetrahydro)naphthyl]-N-propyl-N'-methyl-N'-[2-(2-methoxyphenoxy)ethyl]-1,6-hexanediamine dihychloride]	6.39	8.26	0.00339	
